According to patent US20170232043A1, “BACTERIA ENGINEERED TO TREAT DISORDERS INVOLVING THE CATABOLISM OF A BRANCHED CHAIN AMINO ACID” (priority 2015, published 2017):

Legend:
[1] = tested on: ATC-inducible Ptet-GFP reporter construct; experiment: ATC-inducible Ptet-GFP reporter construct, fluorescence in plate reader (Example 28); type: cell-based, E. coli Nissle; conditions: two-fold decreased inducer, across a range of concentrations
[2] = tested on: LAD: L-amino acid deaminase of P. vulgaris; conditions: relative within the enzyme; cited from earlier work
[3] = tested on: Pma: amino acid deaminase gene from P. mirabilis; conditions: relative within the enzyme; cited from earlier work
[4] = tested on: Pm1: amino acid deaminase gene from P. mirabilis KCTC 2566; conditions: relative within the enzyme; cited from earlier work
rat = conditions: cited from earlier work
LivK = LivK (Escherichia coli, UniProt P04816); conditions: cited from earlier work
[5] = tested on: nitric oxide inducible PnsrR-GFP reporter construct; experiment: Nitric oxide inducible PnsrR-GFP reporter construct, fluorescence in plate reader (Example 28); type: cell-based, E. coli Nissle; conditions: DETA-NO as NO donor, two-fold decreased inducer, across a range of concentrations
leucine = experiment: in vitro leucine degradation assay (leucine in culture medium by LC-MS/MS); type: cell-based, E. coli Nissle

Sequence of LivK (P04816 24-369): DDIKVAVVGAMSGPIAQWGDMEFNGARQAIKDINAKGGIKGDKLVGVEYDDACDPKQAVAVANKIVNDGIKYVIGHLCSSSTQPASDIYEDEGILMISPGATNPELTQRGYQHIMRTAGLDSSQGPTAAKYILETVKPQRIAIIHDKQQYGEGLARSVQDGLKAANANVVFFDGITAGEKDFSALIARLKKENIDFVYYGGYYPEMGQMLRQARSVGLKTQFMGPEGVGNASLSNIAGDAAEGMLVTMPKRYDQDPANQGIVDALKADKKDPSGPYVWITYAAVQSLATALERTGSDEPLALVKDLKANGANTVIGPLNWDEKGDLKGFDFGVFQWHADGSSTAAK

Molecule: Cc1c2c(c(O)c3c(O)cccc13)C(=O)[C@]1(O)C(=O)C(C(N)=O)=C(O)[C@@H](N(C)C)[C@@H]1C2 [ATC, anhydrotetracycline]
- expression of GFP (relative florescence units) [1]: able to induce the expression of GFP

Molecule: C[C@H](N)C(=O)O [Ala]
- amino acid deaminase activity of LAD, percentage [2]: 3.5%
- amino acid deaminase activity of Pma, percentage [3]: 0.6%
- amino acid deaminase activity of Pm1, percentage [4]: 9%

Molecule: N=C(N)NCCC[C@H](N)C(=O)O [Arg]
- amino acid deaminase activity of LAD, percentage [2]: 27.3%
- amino acid deaminase activity of Pma, percentage [3]: 28.2%
- amino acid deaminase activity of Pm1, percentage [4]: 51.2%

Molecule: NC(=O)C[C@H](N)C(=O)O [Asn]
- amino acid deaminase activity of LAD, percentage [2]: 43.6%
- amino acid deaminase activity of Pma, percentage [3]: 0%
- amino acid deaminase activity of Pm1, percentage [4]: 5.2%

Molecule: N[C@@H](CC(=O)O)C(=O)O [Asp]
- amino acid deaminase activity of LAD, percentage [2]: 55.4%
- amino acid deaminase activity of Pma, percentage [3]: 10.9%
- amino acid deaminase activity of Pm1, percentage [4]: 2.6%

Molecule: N[C@@H](CS)C(=O)O [Cys]
- amino acid deaminase activity of Pma, percentage [3]: 1.9%
- amino acid deaminase activity of Pm1, percentage [4]: 9%

Molecule: NC(=O)CC[C@H](N)C(=O)O [Gln]
- amino acid deaminase activity of LAD, percentage [2]: 1.1%
- amino acid deaminase activity of Pma, percentage [3]: 1.3%
- amino acid deaminase activity of Pm1, percentage [4]: 5.2%

Molecule: N[C@@H](CCC(=O)O)C(=O)O [Glu]
- amino acid deaminase activity of LAD, percentage [2]: 1.1%
- amino acid deaminase activity of Pma, percentage [3]: 0.6%
- amino acid deaminase activity of Pm1, percentage [4]: 35.8%

Molecule: NCC(=O)O [Gly]
- amino acid deaminase activity of Pma, percentage [3]: 1.3%
- amino acid deaminase activity of Pm1, percentage [4]: 7.6%

Molecule: N[C@@H](Cc1c[nH]cn1)C(=O)O [His]
- amino acid deaminase activity of LAD, percentage [2]: 79.9%
- amino acid deaminase activity of Pma, percentage [3]: 0%
- amino acid deaminase activity of Pm1, percentage [4]: 100%

Molecule: CC[C@H](C)[C@H](N)C(=O)O [Ilu, isoleucine]
- amino acid deaminase activity of Pma, percentage [3]: 2.6%
- amino acid deaminase activity of Pm1, percentage [4]: 6.4%

Molecule: CC(C)CO [Isobutanol]
- Oral NOAEL* (rat) (rat; No-Observed-Adverse-Effect): >1450 mg/kg/day

Molecule: CC(C)CCO [Isopentanol]
- Oral LD50 (rat) (rat): >5000 mg/kg

Molecule: CC(C)C[C@H](N)C(=O)O [Leu, leucine]
- Kd (LivK): ~1000 nM
- amino acid deaminase activity of LAD, percentage [2]: 105%
- amino acid deaminase activity of Pma, percentage [3]: 41.7%
- amino acid deaminase activity of Pm1, percentage [4]: 7.6%

Molecule: NCCCC[C@H](N)C(=O)O [Lys]
- amino acid deaminase activity of LAD, percentage [2]: 3.5%
- amino acid deaminase activity of Pma, percentage [3]: 1.9%
- amino acid deaminase activity of Pm1, percentage [4]: 7.6%

Molecule: CSCC[C@H](N)C(=O)O [Met]
- amino acid deaminase activity of LAD, percentage [2]: 100%
- amino acid deaminase activity of Pma, percentage [3]: 16.7%
- amino acid deaminase activity of Pm1, percentage [4]: 2.6%

Molecule: NCCN(CCN)[N+]([O-])=NO [NO]
- expression of GFP (relative florescence units) [5]: able to induce the expression of GFP

Molecule: N[C@@H](Cc1ccccc1)C(=O)O [Phe]
- amino acid deaminase activity of LAD, percentage [2]: 37.4%
- amino acid deaminase activity of Pma, percentage [3]: 100%
- amino acid deaminase activity of Pm1, percentage [4]: 46.2%

Molecule: O=C(O)[C@@H]1CCCN1 [Pro]
- amino acid deaminase activity of LAD, percentage [2]: 0.7%
- amino acid deaminase activity of Pma, percentage [3]: 3.2%
- amino acid deaminase activity of Pm1, percentage [4]: 14.2%

Molecule: N[C@@H](CO)C(=O)O [Ser]
- amino acid deaminase activity of Pma, percentage [3]: 1.3%
- amino acid deaminase activity of Pm1, percentage [4]: 3.8%

Molecule: C[C@@H](O)[C@H](N)C(=O)O [Thr]
- amino acid deaminase activity of LAD, percentage [2]: 1.1%
- amino acid deaminase activity of Pma, percentage [3]: 0%
- amino acid deaminase activity of Pm1, percentage [4]: 12.8%

Molecule: N[C@@H](Cc1c[nH]c2ccccc12)C(=O)O [Trp]
- amino acid deaminase activity of LAD, percentage [2]: 41.6%
- amino acid deaminase activity of Pma, percentage [3]: 3.2%
- amino acid deaminase activity of Pm1, percentage [4]: 10.2%

Molecule: N[C@@H](Cc1ccc(O)cc1)C(=O)O [Tyr]
- amino acid deaminase activity of LAD, percentage [2]: 92.8%
- amino acid deaminase activity of Pma, percentage [3]: 0.6%
- amino acid deaminase activity of Pm1, percentage [4]: 9%

Molecule: CC(C)[C@H](N)C(=O)O [Val, valine]
- amino acid deaminase activity of Pma, percentage [3]: 1.3%
- amino acid deaminase activity of Pm1, percentage [4]: 6.4%

B1: LeuDH: leucine dehydrogenase from Pseudomonas aeruginosa, expressed in the engineered strain (protein)
chain: MFDMMDAARLEGLHLAQDPATGLKAIIAIHSTRLGPALGGCRYLPYPNDEAAIGDAIRLAQGMSYKAALAGLEQGGGKAVIIRPPHLDNRGALFEAFGRFIESLGGRYITAVDSGTSSADMDCIAQQTRHVTSTTQAGDPSPHTALGVFAGIRASAQARLGSDDLEGLRVAVQGLGHVGYALAEQLAAVGAELLVCDLDPGRVQLAVEQLGAHPLAPEALLSTPCDILAPCGLGGVLTSQSVSQLRCAAVAGAANNQLERPEVADELEARGILYAPDYVINSGGLIYVALKHRGADPHSITAHLARIPARLTEIYAHAQADHQSPARIADRLAERILYGPQ
modifications: Synthetic: leuDH codon-optimized nucleotide sequence
notes: leucine dehydrogenase from Pseudomonas aeruginosa, expressed in the engineered strain
- rate of leucine degradation (leucine; background strain Nissle ΔleuE, lacZ:tet-livKHMGF): about 160 nmol/10^9 CFU/hour

B2: LAADPm: L-AAD derived from P. mirabilis (protein)
chain: MAISRRKFILGGTVVAVAAGAGVLTPMLTREGRFVPGTPRHGFVEGTGGPLPKQDDVVVIGAGILGIMTAINLAERGLSVTIVEKGNIAGEQSSRFYGQAISYKMPDETFLLHHLGKHRWREMNAKVGIDTTYRTQGRVEVPLDEEDLENVRKWIDAKSKDVGSDIPFRTKMIEGAELKQRLRGATTDWKIAGFEEDSGSFDPEVATFVMAEYAKKMGIKIFTNCAARGLETQAGVISDVVTEKGPIKTSRVVVAGGVGSRLFMQNLNVDVPTLPAYQSQQLISAAPNAPGGNVALPGGIFFRDQADGTYATSPRVIVAPVVKESFTYGYKYLPLLALPDFPVHISLNEQLINSFMQSTHWDLNEESPFEKYRDMTALPDLPELNASLEKLKKEFPAFKESTLIDQWSGAMAIAPDENPIISDVKEYPGLVINTATGWGMTESPVSAEITADLLLGKKPVLDAKPFSLYRF
modifications: Synthetic: L-AAD Nucleotide sequence
notes: L-AAD derived from P. mirabilis
- leucine degradation rate, comparison of adh2, yqhD, padA and of LAADPv, LAADPm (leucine; SYN469 background, with L-AAD and kivD): good alternative to LAADPV

B3: BrnQ: low affinity BCAA transporter (protein)
chain: MTHQLRSRDIIALGFMTFALFVGAGNIIFPPMVGLQAGEHVWTAAFGFLITAVGLPVLTVVALAKVGGGVDSLSTPIGKVAGVLLATVCYLAVGPLFATPRTATVSFEVGIAPLTGDSALPLFIYSLVYFAIVILVSLYPGKLLDTVGNFLAPLKIIALVILSVAAIIWPAGSISTATEAYQNAAFSNGFVNGYLTMDTLGAMVFGIVIVNAARSRGVTEARLLTRYTVWAGLMAGVGLTLLYLALFRLGSDSASLVDQSANGAAILHAYVQHTFGGGGSFLLAALIFIACLVTAVGLTCACAEFFAQYVPLSYRTLVFILGGFSMVVSNLGLSQLIQISVPVLTAIYPPCIALVVLSFTRSWWHNSSRVIAPPMFISLLFGILDGIKASAFSDILPSWAQRLPLAEQGLAWLMPTVVMVVLAIIWDRAAGRQVTSSAH
modifications: BCAA transporter BrnQ
- rate of leucine degradation with overexpression of BrnQ (leucine; LeuE and ilvC knockout strain with leuDH-kivD-padA on high copy plasmid, tet inducible brnQ on low copy plasmid): greatly improves the rate of leucine degradation
